Structures are written as SMILES.

GI50 data for 18 molecules are collected here from patent US11510920B2, “Compositions and methods for treating EZH2-mediated cancer” (Icahn School of Medicine at Mount Sinai, priority 2016, dated 2022).

For the first experiment, the system named is MDA-MB-468 cells. Kind of experiment: Proliferation assay (IncuCyte cell confluence), MDA-MB-468. The class given is cell-based. The following applies: Homo sapiens, concentration for 50% of maximal inhibition of cell proliferation. The procedure:
(§1) 1-3×10^3 cells were seeded in 96-well plates in duplicates and treated at the indicated compound concentrations. Cells were monitored using the IncuCyte® live cell imaging system (Essen BioScience™, Ann Arbor, Mich.) which was placed in a cell culture incubator operated at 37° C. and 5% CO2. Cell confluence was determined using calculations derived from phase-contrast images. The concentration for 50% of maximal inhibition of cell proliferation (GI50) values were determined by fitting to a standard four-parameter logistic using GraphPad Prism® v5. Graphs depicting the GI50s of select EZH2 degraders/disruptors described here for various cancer cell lines are shown in FIGS. 4-49.
Regarding `Cc1cc(C)c(CNC(=O)c2cc(-c3ccc(N4CCN(CCNC(=O)CCOCCNc5cccc6c5C(=O)N(C5CCC(=O)NC5=O)C6=O)CC4)nc3)cc3c2cnn3C(C)C)c(=O)[nH]1` (stereo not drawn) [AM29-177A, N-((4,6-dimethyl-2-oxo-1,2-dihydropyridin-3-yl)methyl)-6-(6-(4-(2-(3-(2-((2-(2,6-dioxopiperidin-3-yl)-1,3-dioxoisoindolin-4-yl)amino)ethoxy)propanamido)ethyl)piperazin-1-yl)pyridin-3-yl)-1-isopropyl-1H-indazole-4-carboxamide], growth was halved (GI50) at 2.5 µM. Still for that read-out and setting: for `Cc1cc(C)c(CNC(=O)c2cc(-c3ccc(N4CCN(CCNCCC56CC7CC(CC(C7)C5)C6)CC4)nc3)cc3c2c(C)cn3C(C)C)c(=O)[nH]1` [AM41-41A, 6-(6-(4-(2-((2-((3r,5r,7r)-adamantan-1-yl)ethyl)amino)ethyl)piperazin-1-yl)pyridin-3-yl)-N-((4,6-dimethyl-2-oxo-1,2-dihydropyridin-3-yl)methyl)-1-isopropyl-3-methyl-1H-indole-4-carboxamide] the value was 2.3 µM; for `CCN(c1cc(-c2ccc(CN3CCN(CCN(CCC45CC6CC(CC(C6)C4)C5)CCC45CC6CC(CC(C6)C4)C5)CC3)cc2)cc(C(=O)NCc2c(C)cc(C)[nH]c2=O)c1C)C1CCOCC1` [CZ40-75, 4′-((4-(2-((2-((1s,3S)-adamantan-1-yl)ethyl)(2-((3R,5R,7R)-adamantan-1-yl)ethyl)amino)ethyl)piperazin-1-yl)methyl)-N-((4,6-dimethyl-2-oxo-1,2-dihydropyridin-3-yl)methyl)-5-(ethyl(tetra-hydro-2H-pyran-4-yl)amino)-4-methyl-[1,1′-biphenyl]-3-carboxamide], 1.1 µM. On the same count and under the same terms, in the case of `CCN(c1cc(-c2ccc(CN3CCN(CCNC(=O)CCSCCC[C@@H]4/C=C(\C)C[C@H](C)C[C@H](OC)[C@H]5O[C@@](O)(C(=O)C(=O)N6CCCC[C@H]6C(=O)O[C@H](/C(C)=C/[C@@H]6CC[C@@H](O)[C@H](OC)C6)[C@H](C)[C@@H](O)CC4=O)[C@H](C)C[C@@H]5OC)CC3)cc2)cc(C(=O)NCc2c(C)cc(C)[nH]c2=O)c1C)C1CCOCC1` [CZ40-131, FK506 adduct with N-((4,6-dimethyl-2-oxo-1,2-dihydropyridin-3-yl)methyl)-5-(ethyl(tetrahydro-2H-pyran-4-yl)amino)-4′-((4-(2-(3-mercaptopropanamido)ethyl)piperazin-1-yl)methyl)-4-methyl-[1,1′-biphenyl]-3-carboxamide] it was 1.5 µM; in that of `CCN(c1cc(-c2ccc(CN3CCN(CCNCCC45CC6CC(CC(C6)C4)C5)CC3)cc2)cc(C(=O)NCc2c(C)cc(C)[nH]c2=O)c1C)C1CCOCC1` [CZ40-149, 4′-((4-(2-((2-((1s,3s)-adamantan-1-yl)ethyl)amino)ethyl)piperazin-1-yl)methyl)-N-((4,6-dimethyl-2-oxo-1,2-dihydropyridin-3-yl)methyl)-5-(ethyl(tetra-hydro-2H-pyran-4-yl)amino)-4-methyl-[1,1′-biphenyl]-3-carboxamide], 1.8 µM; in that of `Cc1cc(C)c(CNC(=O)c2c(C)n([C@@H](C)C3CCN(CCNC(=O)CC4C5CC6CC(C5)CC4C6)CC3)c3ccccc23)c(=O)[nH]1` (stereo partly drawn) [XF042-90, 1-((S)-1-(1-(2-(2-((1R,3S,5S,7S)-adamantan-2-yl)acetamido)ethyl)piperidin-4-yl)ethyl)-N-((4,6-dimethyl-2-oxo-1,2-dihydropyridin-3-yl)methyl)-2-methyl-1H-indole-3-carboxamide], 7.2 µM. For `CO[C@H]1C[C@@H](C)C/C(C)=C/[C@@H](CCCSCCC(=O)NCCN2CCC([C@H](C)n3c(C)c(C(=O)NCc4c(C)cc(C)[nH]c4=O)c4ccccc43)CC2)C(=O)C[C@H](O)[C@@H](C)[C@@H](/C(C)=C/[C@@H]2CC[C@@H](O)[C@H](OC)C2)OC(=O)[C@@H]2CCCCN2C(=O)C(=O)[C@]2(O)O[C@H]1[C@@H](OC)C[C@H]2C` [XF042-92, FK506 adduct with (S)-N-((4,6-dimethyl-2-oxo-1,2-dihydropyridin-3-yl)methyl)-1-(1-(1-(2-(3-mercaptopropanamido)ethyl)piperidin-4-yl)ethyl)-2-methyl-1H-indole-3-carboxamide], the concentration for 50% growth inhibition (GI50) – broadly, the concentration giving 50% growth inhibition – is 2.6 µM. On to `Cc1cc(C)c(CNC(=O)c2c(C)n([C@@H](C)C3CCN(CCN(CCC45CC6CC(CC(C6)C4)C5)CCC45CC6CC(CC(C6)C4)C5)CC3)c3ccccc23)c(=O)[nH]1` [XF042-93, 1-((S)-1-(1-(2-(bis(2-((3S,5S,7S)-adamantan-1-yl)ethyl)amino)ethyl)piperidin-4-yl)ethyl)-N-((4,6-dimethyl-2-oxo-1,2-dihydropyridin-3-yl)methyl)-2-methyl-1H-indole-3-carboxamide], for which the GI50 is 2.2 µM. Same read-out and setting: in the case of `COc1cc(C)[nH]c(=O)c1CNC(=O)c1c(C)n([C@@H](C)C2CCN(CCN(CCC34CC5CC(CC(C5)C3)C4)CCC34CC5CC(CC(C5)C3)C4)CC2)c2ccccc12` [XF042-95, 1-((S)-1-(1-(2-(bis(2-((3S,5S,7S)-adamantan-1-yl)ethyl)amino)ethyl)piperidin-4-yl)ethyl)-N-((4-methoxy-6-methyl-2-oxo-1,2-dihydro-pyridin-3-yl)methyl)-2-methyl-1H-indole-3-carboxamide] it was 2.5 µM; in that of `Cc1cc(C)c(CNC(=O)c2c(C)n([C@@H](C)C3CCN(CCNCCC45CC6CC(CC(C6)C4)C5)CC3)c3ccccc23)c(=O)[nH]1` [XF042-133, 1-((S)-1-(1-(2-((2-((3S,5S,7S)-adamantan-1-yl)ethyl)amino)ethyl)piperidin-4-yl)ethyl)-N-((4,6-dimethyl-2-oxo-1,2-dihydropyridin-3-yl)methyl)-2-methyl-1H-indole-3-carboxamide], 4.9 µM; in that of `CO[C@H]1C[C@@H](C)C/C(C)=C/[C@@H](CCCSCCC(=O)NCCN2CCN(c3ccc(-c4cc(C(=O)NCc5c(C)cc(C)[nH]c5=O)c5cnn(C(C)C)c5c4)cn3)CC2)C(=O)C[C@H](O)[C@@H](C)[C@@H](/C(C)=C/[C@@H]2CC[C@@H](O)[C@H](OC)C2)OC(=O)[C@@H]2CCCCN2C(=O)C(=O)[C@]2(O)O[C@H]1[C@@H](OC)C[C@H]2C` [XY028-086, FK506 adduct with N-((4,6-dimethyl-2-oxo-1,2-dihydropyridin-3-yl)methyl)-1-isopropyl-6-(6-(4-(2-(3-mercaptopro-panamido)ethyl)piperazin-1-yl)pyridin-3-yl)-1H-indazole-4-carboxamide], 2.4 µM.

The next experiment concerns HCC1187 cells. Kind of experiment: Proliferation assay (IncuCyte cell confluence), HCC1187. The conditions noted are these: Homo sapiens, concentration for 50% of maximal inhibition of cell proliferation. The class given is cell-based. The procedure:
as §1
Turning to `CCCc1cc(C)[nH]c(=O)c1CNC(=O)c1cc(-c2ccc(N3CCN(CCNC(=O)CCC45CC6CC(CC(C6)C4)C5)CC3)nc2)cc2c1cnn2C(C)C` [AM16-11A, 6-(6-(4-(2-(3-((1r,3s)-adamantan-1-yl)propanamido)ethyl)piperazin-1-yl)pyridin-3-yl)-1-isopropyl-N-((6-methyl-2-oxo-4-propyl-1,2-dihydro-pyridin-3-yl)methyl)-1H-indazole-4-carboxamide], the GI50 is 2.6 µM. On the same count and under the same terms, in the case of `CCCc1cc(C)[nH]c(=O)c1CNC(=O)c1cc(-c2ccc(N3CCN(C(=O)CC45CC6CC(CC(C6)C4)C5)CC3)nc2)cc2c1cnn2C(C)C` [AM16-37A, 6-(6-(4-(2-((1s,3s)-adamantan-1-yl)acetyl)piperazin-1-yl)pyridin-3-yl)-1-isopropyl-N-((6-methyl-2-oxo-4-propyl-1,2-dihydropyridin-3-yl)methyl)-1H-indazole-4-carboxamide] it was 2.1 µM; in that of `CCCc1cc(C)[nH]c(=O)c1CNC(=O)c1cc(-c2ccc(N3CCN(C(=O)CCC45CC6CC(CC(C6)C4)C5)CC3)nc2)cc2c1cnn2C(C)C` [AM16-38A, 6-(6-(4-(3-((3r,5r,7r)-adamantan-1-yl)propanoyl)piperazin-1-yl)pyridin-3-yl)-1-isopropyl-N-((6-methyl-2-oxo-4-propyl-1,2-dihydropyridin-3-yl)methyl)-1H-indazole-4-carboxamide], 2 µM; in that of `Cc1cc(C)c(CNC(=O)c2cc(-c3ccc(N4CCN(C(=O)CCC56CC7CC(CC(C7)C5)C6)CC4)nc3)cc3c2cnn3C(C)C)c(=O)[nH]1` [AM16-93A, 6-(6-(4-(3-((1r,3s)-adamantan-1-yl)propanoyl)piperazin-1-yl)pyridin-3-yl)-N-((4,6-dimethyl-2-oxo-1,2-dihydropyridin-3-yl)methyl)-1-isopropyl-1H-indazole-4-carboxamide], 1.5 µM. The same measure, in the same setting: in the case of `Cc1cc(C)c(CNC(=O)c2cc(-c3ccc(N4CCN(C(=O)[C@H](C)CCC56CC7CC(CC(C7)C5)C6)CC4)nc3)cc3c2cnn3C(C)C)c(=O)[nH]1` [AM16-97A, 6-(6-(4-((2R)-4-((1r,3S)-adamantan-1-yl)-2-methylbutanoyl)piperazin-1-yl)pyridin-3-yl)-N-((4,6-dimethyl-2-oxo-1,2-dihydropyridin-3-yl)methyl)-1-isopropyl-1H-indazole-4-carboxamide] it was 1.2 µM; in that of `Cc1cc(C)c(CNC(=O)c2cc(-c3ccc(N4CCN(CCCNC(=O)[C@H](C)CCC56CC7CC(CC(C7)C5)C6)CC4)nc3)cc3c2cnn3C(C)C)c(=O)[nH]1` [AM16-106A, 6-(6-(4-(3-((R)-4-((3R,5R,7R)-adamantan-1-yl)-2-methyl-butanamido)propyl)piperazin-1-yl)pyridin-3-yl)-N-((4,6-dimethyl-2-oxo-1,2-dihydro-pyridin-3-yl)methyl)-1-isopropyl-1H-indazole-4-carboxamide], 4.3 µM. For `Cc1cc(C)c(CNC(=O)c2cc(-c3ccc(N4CCN(CCNC(=O)CCC56CC7CC(CC(C7)C5)C6)CC4)nc3)cc3c2cnn3C(C)C)c(=O)[nH]1` [XY019-44, 6-(6-(4-(2-(3-((3r,5r,7r)-adamantan-1-yl)propanamido)ethyl)piperazin-1-yl)pyridin-3-yl)-N-((4,6-dimethyl-2-oxo-1,2-dihydropyridin-3-yl)methyl)-1-isopropyl-1H-indazole-4-carboxamide], the GI50 was 2.2 µM. This GI50 is about 2-fold lower than that of the molecule before.
